Test results: ChEMBL document CHEMBL1201862, “PubChem BioAssay data set” (2004)
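A five-concentration, 48-hour dose response in 96-well plates underlies each endpoint, interpolated linearly between surrounding concentrations. Abbreviation: GI50, concentration required for 50% inhibition of growth.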 Activity calls are given as the source filed them. No stated cut-off is given here; in the data, active = GI50 up to about 1.1 µM and inactive = higher.

How the values were obtained:
Assay in all cases: NCI tumour cell line growth inhibition, 48 h
SK-MEL-2 = tested on: SK-MEL-2
MCF7 = tested on: MCF7
HOP-92 = tested on: HOP-92
COLO 205 = tested on: COLO 205
UO-31 = tested on: UO-31
UACC-62 = tested on: UACC-62
SK-MEL-5 = tested on: SK-MEL-5
HCT-116 = tested on: HCT-116
HCC 2998 = tested on: HCC 2998
ACHN = tested on: ACHN
SK-OV-3 = tested on: SK-OV-3
MDA-MB-435 = tested on: MDA-MB-435
NCI-H226 = tested on: NCI-H226
UACC-257 = tested on: UACC-257
OVCAR-4 = tested on: OVCAR-4
MDA-MB-231 = tested on: MDA-MB-231
A498 = tested on: A498
NCI-H23 = tested on: NCI-H23
RXF 393 = tested on: RXF 393
SN12C = tested on: SN12C

Measured: GI50

Cc1ccc(C(=O)N/N=C(\N=N\c2cccc(Cl)c2)c2ccc(N(CCC#N)CCC#N)cc2C)cc1
inactive: SK-MEL-2 > 100 µM | MCF7 > 100 µM | HOP-92 > 100 µM | COLO 205 > 100 µM | UO-31 > 100 µM | UACC-62 > 100 µM | SK-MEL-5 > 100 µM | HCT-116 > 100 µM | HCC 2998 > 100 µM | ACHN > 100 µM | SK-OV-3 > 100 µM | MDA-MB-435 > 100 µM | NCI-H226 > 100 µM | UACC-257 > 100 µM | OVCAR-4 > 100 µM | MDA-MB-231 > 100 µM | A498 > 100 µM | NCI-H23 > 100 µM | RXF 393 29.4 µM | SN12C > 100 µM
